Assay results reported in article PMC6017655, “In Silico and in Vitro-Guided Identification of Inhibitors of Alkylquinolone-Dependent Quorum Sensing in Pseudomonas aeruginosa” (Molecules : A Journal of Synthetic Chemistry and Natural …, 2018).

Experiments:
Format in all cases: cell-based, Pseudomonas aeruginosa
[1] = system: PqsR (pqsA promoter, PA14 mCTX::PpqsA-lux); assay: Whole cell biosensor reporter assay, PA14 mCTX::PpqsA-lux; conditions: Pseudomonas aeruginosa, PA14, read-out: PA14 Remaining Activity %
Description: (§1) To determine the ability of the quinolines to inhibit PqsR functionality, the P. aeruginosa biosensor strains, PAO1-L and PA14, incorporating a chromosomal mCTX::PpqsA-lux transcriptional fusion, were used. These report on the activation of the pqsA promoter, regulated by PqsR [25]. PAO1-L and PA14 were chosen because they are genetically amenable and belong to the two major P. aeruginosa genomic groups. The quinolone compounds were incubated with the corresponding strain, and luminescence and optical density readings were recorded to monitor the effect of the quinolines on PqsR activity and bacterial growth, respectively. The compounds were screened at 10 µM concentration, and the activity was compared to a control of DMSO (0.1%) (Figure 3a). To be considered a hit, a threshold of at least 50% inhibition of the test compound, relative to the negative control had to be reached, without affecting bacterial growth. […] Concentration-response experiments were then carried out to determine the IC50 values (Figure 3b,c), which are summarised in Table 1.
(§2) Strains PA14 mCTX::PpqsA-lux and PAO1-L mCTX::PpqsA-lux were constructed using plasmid mini-CTX::PpqsA-lux, as previously described, and the assay was performed according to a published protocol. For screening, the compounds were tested at a concentration of 10 µM, which was prepared from a 10 mM stock, in DMSO.

[2] = system: PqsR (pqsA promoter, PAO1-L mCTX::PpqsA-lux); assay: Whole cell biosensor reporter assay, PAO1-L mCTX::PpqsA-lux; conditions: Pseudomonas aeruginosa, PAO1, read-out: PAO1-L Remaining Activity %
Description: as §1, §2

PA14 biofilms = assay: Biofilm assay on glass coverslips, GFP-labelled PA14; conditions: Ia 8 µM; tobramycin 100 µg/mL for 4 h
Description: (§3) One of the clinical challenges of P. aeruginosa infections is the difficulty associated with the effective treatment of biofilms due to their high resistance to antibiotics. […] The effect of Ia, with or without tobramycin, on PA14 and PAO1-L biofilms grown on glass coverslips, was determined. […] The experiment was performed using green fluorescent labelled (GFP)-labelled PAO1-L and PA14 strains, grown under four different conditions: (i) no treatment (control); (ii) compound Ia at 8 µM in PA14 and 34 µM in PAO1-L (concentrations equal to 3× IC50); (iii) tobramycin at 100 µg/mL; (iv) Ia and tobramycin, at the same concentrations as (ii) and (iii).
(§4) Biofilms were cultivated on borosilicate glass coverslips in petri dishes. P. aeruginosa strains, PAO1-L and PA14, were labelled by transformation with plasmid pMMG, which constitutively expresses GFP from the Ptac promoter. Labelled strains were grown at 37 °C, for 16 h, in 2 mL RPMI-1640 (Lonza, Slough, UK), supplemented with 20 mM D-glucose (Sigma–Aldrich, Dorset, UK) and 2 µM FeCl3 (Sigma–Aldrich, Dorset, UK). Cultures were diluted 1:100 in fresh medium and allowed to grow for a further 4 h, or until an OD600 of 0.5 was reached. The mid-logarithmic cultures were diluted to an OD600 of 0.01 in 25 mL RPMI, supplemented with glucose and FeCl3, and inoculated into petri dishes containing UV sterilised borosilicate glass coverslips (22 × 22 mm, thickness no1) (VWR, Lutterworth, UK). Bacterial cells were seeded at 37 °C under static conditions for 1.5 h, and compound Ia was added to the culture at a concentration of 34 µM for P. aeruginosa PAO1-L and 8 µM for PA14 before dishes were moved to a shaker at 60 rpm and 37 °C for 15 h to form mature biofilms. Tobramycin and propidium iodide were added to the 15 h-old cultures at concentrations of 100 µg/mL and 2 µM, respectively, followed by further incubation for 4 h. Coverslips were examined under a Laser Scanning Fluorescent Microscope (LSM2, Zeiss, Oberkochen, Germany). Biofilms were visualised using egfp mode at an excitation wavelength of 488nm. Imaging was carried out using Zen 2011 imaging software (Zeiss, Oberkochen, Germany). A total of 5 Z-stacked images were collected per coverslip. Sampling was conducted at random from the central portion of each coverslip. Biomass was calculated using Image J (NIH, Bethesda, MD, USA) and Comstat 2.1. Software package (www.comstat.dk, lyngby, Denmark).

PAO1-L biofilms = assay: Biofilm assay on glass coverslips, GFP-labelled PAO1-L; conditions: Ia 34 µM; tobramycin 100 µg/mL for 4 h
Description: as §3, §4

SMILES | activity at 10 µM [1] | activity at 10 µM [2] | further results
CC(=O)N1N=C(c2ccc(C)cc2)CC1c1cccc(Nc2ccnc3cc(Cl)ccc23)c1 (stereo not shown) [IIb] | 96.2 ± 4.34% | 59.5 ± 1.86% | 
COc1ccc(C2=NN(C(C)=O)C(c3cccc(Nc4ccnc5cc(Cl)ccc45)c3)C2)cc1 (stereo not shown) [IIc] | 115 ± 2.13% | 120 ± 8.28% | 
COc1cc(C2=NN(C(C)=O)C(c3cccc(Nc4ccnc5cc(Cl)ccc45)c3)C2)cc(OC)c1OC (stereo not shown) [IId] | 110 ± 1.6% | 127 ± 9.69% | 
CC(=O)N1N=C(c2ccc(F)cc2)CC1c1cccc(Nc2ccnc3cc(Cl)ccc23)c1 (stereo not shown) [IIe] | 120 ± 1.59% | 82.6 ± 22.7% | 
CC(=O)N1N=C(c2ccc(Cl)cc2)CC1c1cccc(Nc2ccnc3cc(Cl)ccc23)c1 (stereo not shown) [IIf] | 103 ± 4.91% | 90.2 ± 3.84% | 
CC(=O)N1N=C(c2ccc(Br)cc2)CC1c1cccc(Nc2ccnc3cc(Cl)ccc23)c1 (stereo not shown) [IIg] | 109 ± 2.79% | 63.7 ± 5.01% | 
CC(=O)N1N=C(c2ccc3c(c2)OCO3)CC1c1cccc(Nc2ccnc3cc(Cl)ccc23)c1 (stereo not shown) [IIh] | 115 ± 6.02% | 65.8 ± 5.63% | 
CC(=O)N1N=C(c2ccc(C)cc2)CC1c1cccc(Nc2ccnc3cc(C(F)(F)F)ccc23)c1 (stereo not shown) [IIj] | 108 ± 6.05% | 97.3 ± 6.46% | 
COc1ccc(C2=NN(C(C)=O)C(c3cccc(Nc4ccnc5cc(C(F)(F)F)ccc45)c3)C2)cc1 (stereo not shown) [IIk] | 118 ± 5.97% | 66.7 ± 0.42% | 
COc1cc(C2=NN(C(C)=O)C(c3cccc(Nc4ccnc5cc(C(F)(F)F)ccc45)c3)C2)cc(OC)c1OC (stereo not shown) [IIl] | 103 ± 4.84% | 86.1 ± 2.39% | 
CC(=O)N1N=C(c2ccc(F)cc2)CC1c1cccc(Nc2ccnc3cc(C(F)(F)F)ccc23)c1 (stereo not shown) [IIm] | 99.9 ± 3.17% | 90.2 ± 4.4% | 
CC(=O)N1N=C(c2ccc(Cl)cc2)CC1c1cccc(Nc2ccnc3cc(C(F)(F)F)ccc23)c1 (stereo not shown) [IIn] | 98.1 ± 11.4% | 97.8 ± 5.52% | 
CC(=O)N1N=C(c2ccc(Br)cc2)CC1c1cccc(Nc2ccnc3cc(C(F)(F)F)ccc23)c1 (stereo not shown) [IIo] | 95.6 ± 9.58% | 80.8 ± 5.06% | 
CC(=O)N1N=C(c2ccc3c(c2)OCO3)CC1c1cccc(Nc2ccnc3cc(C(F)(F)F)ccc23)c1 (stereo not shown) [IIp] | 99.6 ± 4.09% | 71.6 ± 5.07% | 
Cc1ccc(C2=NN(C=O)C(c3cccc(Nc4ccnc5cc(Cl)ccc45)c3)C2)cc1 (stereo not shown) [Ib] | 78.4 ± 6.51% | 77 ± 2.25% | 
COc1ccc(C2=NN(C=O)C(c3cccc(Nc4ccnc5cc(Cl)ccc45)c3)C2)cc1 (stereo not shown) [Ic] | 102 ± 11.7% | 100 ± 8.46% | 
COc1cc(C2=NN(C=O)C(c3cccc(Nc4ccnc5cc(Cl)ccc45)c3)C2)cc(OC)c1OC (stereo not shown) [Id] | 110 ± 15% | 130 ± 5.04% | 
O=CN1N=C(c2ccc(F)cc2)CC1c1cccc(Nc2ccnc3cc(Cl)ccc23)c1 (stereo not shown) [Ie] | 70.4 ± 6.53% | 40.6 ± 3.71% | 
O=CN1N=C(c2ccc(Br)cc2)CC1c1cccc(Nc2ccnc3cc(Cl)ccc23)c1 (stereo not shown) [Ig] | 94.8 ± 8.91% | 88.1 ± 6.05% | 
O=CN1N=C(c2ccc3c(c2)OCO3)CC1c1cccc(Nc2ccnc3cc(Cl)ccc23)c1 (stereo not shown) [Ih] | 85.8 ± 9.42% | 49.9 ± 12% | 
Cc1ccc(C2=NN(C=O)C(c3cccc(Nc4ccnc5cc(C(F)(F)F)ccc45)c3)C2)cc1 (stereo not shown) [Ij] | 84.9 ± 8.17% | 93.7 ± 6.15% | 
COc1ccc(C2=NN(C=O)C(c3cccc(Nc4ccnc5cc(C(F)(F)F)ccc45)c3)C2)cc1 (stereo not shown) [Ik] | 99.7 ± 9.37% | 78.6 ± 5.75% | 
COc1cc(C2=NN(C=O)C(c3cccc(Nc4ccnc5cc(C(F)(F)F)ccc45)c3)C2)cc(OC)c1OC (stereo not shown) [Il] | 106 ± 15.3% | 85.8 ± 2.39% | 
O=CN1N=C(c2ccc(F)cc2)CC1c1cccc(Nc2ccnc3cc(C(F)(F)F)ccc23)c1 (stereo not shown) [Im] | 74.9 ± 8.28% | 65.1 ± 4.89% | 
O=CN1N=C(c2ccc(Cl)cc2)CC1c1cccc(Nc2ccnc3cc(C(F)(F)F)ccc23)c1 (stereo not shown) [In] | 93.6 ± 4.45% | 61.8 ± 3.97% | 
O=CN1N=C(c2ccc(Br)cc2)CC1c1cccc(Nc2ccnc3cc(C(F)(F)F)ccc23)c1 (stereo not shown) [Io] | 80.6 ± 6.26% | 68.5 ± 3.43% | 
O=CN1N=C(c2ccc3c(c2)OCO3)CC1c1cccc(Nc2ccnc3cc(C(F)(F)F)ccc23)c1 (stereo not shown) [Ip] | 81.4 ± 9.36% | 84.3 ± 5.48% | 
NC[C@H]1O[C@H](O[C@H]2[C@H](O)[C@@H](O[C@H]3O[C@H](CO)[C@@H](O)[C@H](N)[C@H]3O)[C@H](N)C[C@@H]2N)[C@H](N)C[C@@H]1O [tobramycin, reference compound] |  |  | Effect on biofilm biomass, PA14 (PA14 biofilms): significantly reduced biofilm biomass; Effect on cell viability in biofilm (propidium iodide), PA14 (PA14 biofilms): increasing the proportion of dead bacterial cells substantially; Effect on biofilm biomass, PAO1-L (PAO1-L biofilms): significantly reduced biofilm biomass; Effect on cell viability in biofilm (propidium iodide), PAO1-L (PAO1-L biofilms): increasing the proportion of dead bacterial cells substantially
